Results taken from US20260034192A1 (University of Saskatchewan, priority 2022, published 2026).
Marks after values point to notes of the source that are not given here. Square brackets hold non-standard residues; d marks the D form. Peptide text beside a SMILES is read from it. dPhe(4-Cl) = N[C@H](Cc1ccc(Cl)cc1)C(=O)O; d2Nal = N[C@H](Cc1ccc2ccccc2c1)C(=O)O; dCit = NC(=O)NCCC[C@@H](N)C(=O)O; d3Pal = N[C@H](Cc1cccnc1)C(=O)O

Key:
[1] = test system: bovine pituitary cells; experiment: GnRH-induced LH secretion of bovine pituitary cells in vitro (Example 9); type: cell-based; conditions: 300 μg cetrorelix, 340 μg Degarelix, 300 ug Abarelix, 130 μg Relugolix
Experimental: Methods: The heads of mature, non-pregnant cows (n=4) were collected from a local abattoir and the pituitary glands were dissected within 60 minutes of slaughter. Immediately following the dissection, the pituitaries were submerged into ice-cold collection medium. The pituitaries were washed 3 times in collection media and the neurohypophysis was dissected from the adenohypophysis. Using a scalpel, the adenohypophysis (anterior pituitary) was sliced into 1 mm×1 mm pieces and transferred to a 50 mL falcon tube containing DMEM medium with 0.5% BSA. The tissue pieces were washed by manually agitating the tube for 1 minute. The tissue pieces were allowed to settle to the bottom of the tube, then the supernatant was discarded. The macerated pieces were transferred to a 15 mL falcon tube with the dissociation medium and incubated at 37° C. for 60 minutes. Every 10 minutes the tube was vortexed for 1 minute to ensure the tissue was completely dissociated. The dissociation media was inactivated using DMEM with 10% SFB then manually agitating the tube for 1 minute. The dissociated cells were placed in a 40 μm cell strainer to remove the undigested tissue and placed into two 15 mL falcon tubes. The cells were centrifuged at 200×g for 10 minutes and the supernatant was discarded. The cells were washed three times by resuspending in DMEM solution with red blood cell lysing buffer followed by centrifuged at 200×g for 10 minutes. Then the cells were washed with DMEM solution and centrifuged at 200×g for 10 minutes. Following the last centrifugation, the cells were resuspended in DMEM, and the trypan blue test was used to determine the cell count and assess viability. DMEM with 10% fetal bovine serum (FBS) was treated with 10% charcoal-dextran and passed through a 0.2 μm filter. The cells were then plated in a 24-well tissue culture plate with a concentration of 1×10^6 viable cells per well and incubated at 37° C. for 24 hours. The following day, to starve the cells, the culture media was replaced with DMEM without FBS and left to incubate for another 24 hours.
Treatments: Based on the results from the pilot study, the selected concentration for Cetrorelix (cetrorelix acetate) was 300 μg. The cetrorelix was dissolved in trace levels of DMSO then dissolved in ultrapure water. To standardize the treatments, the nanomole concentration of each GnRH antagonist were matched with the cetrorelix nanomole concentration. The final concentration used for further experiments were: 300 μg for cetrorelix, 340 μg for Degarelix (Degarelix acetate), 300 ug for Abarelix (Abarelix acetate). Both degarelix and abarelix were dissolved ultrapure water. The equivalent Relugolix nanomole concentration was 130 μg which was dissolved in methanol. Treatment cells were preincubated for 60 minutes with either Cetrorelix, Degarelix, Relugolix or Abarelix. Following the preincubation, the cells were incubated for 30 minutes with either 1 nM or 10 nM of GnRH (Gonadorelin, Fertagyl, Merck Animal Health). GnRH doses were based on pituitary study by Paolicchi et al. 1999). The media were collected and centrifuged at 200×g for 10 minutes to remove the cells. Positive (Control) group was only treated with 1 nM and 10 nM of GnRH to determine the maximum LH secretion. LH concentrations in the culture medium was measured by a commercial bovine specific ELISA kit and reported as mIU/ml of medium.

[2] = test system: heifers; experiment: Single 3 mg Cetrorelix injection on Day 1, 3 or 6 of wave in heifers (Example 5); type: in vivo, cattle; conditions: for Pregnant/AI: diagnosis 30 days after AI; for Ovulatory follicle size: in mm (unit assumed)
Experimental: Heifers on a random day of the cycle were treated with two i/m injections of prostaglandin analog and observed by transrectal ultrasonography for the day of ovulation (Defined as Day 0 of the wave). Heifers were then randomized into 4 groups (n=7 to 8 per group) and treated with normal saline (control group) or a single 3 mg i/m injection of cetrorelix on Day 1, Day 3 or Day 6 of the first follicular wave. […] Pregnancy diagnosis was done 30 days after artificial insemination.

[3] = test system: mature Angus heifers; experiment: Cetrorelix versus estradiol benzoate synchronization protocol with AI, random day of cycle (Example 7); type: in vivo, cattle
Experimental: This experiment was conducted on 38 mature Angus heifers at the Federal University of Santa Maria in Brazil. Heifers on a random day of the cycle (defined as Day 0) were divided into 2 groups (n=19 per group) and treated with a single i/m injection of 3 mg cetrorelix or with estradiol benzoate (1 mg i/m). A progesterone-releasing device (CIDR) was placed in the vagina of heifers at this time. Eight days after the cetrorelix or estradiol treatments, heifers were given 500 ug cloprostenol (prostaglandin analog) i/m injections and the CIDR device was removed. […] Heifers were given 250 ug gonadorelin acetate (GnRH analog) i/m injection at the time of artificial insemination. […] Pregnancy diagnosis was done 29-30 days after artificial insemination.

[4] = single 3 mg i/m on Day 1 (Cetro 1)
[5] = single 3 mg i/m on Day 3 (Cetro 3)
[6] = single 3 mg i/m on Day 6 (Cetro 6)
[7] = three cetrorelix groups combined
[8] = 3 mg cetrorelix or 1 mg estradiol benzoate i/m

CC(=O)N[C@H](Cc1ccc2ccccc2c1)C(=O)N[C@H](Cc1ccc(Cl)cc1)C(=O)N[C@H](Cc1cccnc1)C(=O)N[C@@H](CO)C(=O)N[C@@H](Cc1ccc(O)cc1)C(=O)N[C@H](CCCNC(N)=O)C(=O)N[C@@H](CC(C)C)C(=O)N[C@@H](CCCNC(=N)N)C(=O)N1CCC[C@H]1C(=O)N[C@H](C)C(N)=O [Cetrorelix, N-acetyl-3-(2-naphthyl)-D-alanyl-4-chloro-D-phenylalanyl-3-(3-pyridyl)-D-alanyl-L-seryl-L-tyrosyl-D-citrullyl-L-leucyl-L-arginyl-L-prolyl-D-alaninamide] (Ac-[d2Nal][dPhe(4-Cl)][d3Pal]SY[dCit]LRP[dA]-NH2)
LH conc in medium ([1]; challenged with 1 nM GnRH 30 minutes after 60 minutes preincubation): 0.09 mIU/mL
LH conc in medium ([1]; challenged with 10 nM GnRH 30 minutes after 60 minutes preincubation): 0.50 mIU/mL
Wave emergence after the cetrorelix treatment irrespective of the phase of the dominant follicle ([2]; single 3 mg (about 7.5 ug/kg) i/m, groups combined): about 3.5±0.4 days
Start of dominant follicle regression after cetrorelix treatment ([2]; single 3 mg i/m): ≤ 2 days
Day of second wave emergence [2, 4]: 4.4 ± 0.5^c
Days from second wave emergence to ovulation [2, 4]: 10.0 ± 0.6^ab* Days
Pregnancy rate (Pregnant/AI, percent) [2, 4]: (62%)
Treatment to wave emergence [2, 4]: 3.4 ± 0.5 days
Pregnant/AI [2, 4]: 5/8
Ovulatory follicle size [2, 4]: 14.4 ± 1.0
Day of second wave emergence [2, 5]: 7.0 ± 0.4^b
Days from second wave emergence to ovulation [2, 5]: 9.0 ± 0.4^ab Days
Pregnancy rate (Pregnant/AI, percent) [2, 5]: (66%)
Treatment to wave emergence (days) [2, 5]: 4.0 ± 0.4^ days
Pregnant/AI [2, 5]: 4/6
Ovulatory follicle size [2, 5]: 15.8 ± 0.6
Day of second wave emergence [2, 6]: 9.4 ± 0.5^a
Days from second wave emergence to ovulation [2, 6]: 8.4 ± 0.4^b Days
Pregnancy rate (Pregnant/AI, percent) [2, 6]: (42%)
Treatment to wave emergence [2, 6]: 3.4 ± 0.5 days
Pregnant/AI [2, 6]: 3/7
Ovulatory follicle size [2, 6]: 14.9 ± 0.3
Overall pregnancy rate, percent [2, 7]: 57%
Overall pregnancy rate, pregnant/AI [2, 7]: 12/21
Heifers showing estrous behavior, compared with estradiol-progesterone treatment ([3]; 3 mg cetrorelix i/m): greater proportion
Pregnant/Double AI [3, 8]: 7/9
Pregnant/Double AI, percent [3, 8]: 78%
Pregnant/Single AI [3, 8]: 8/10
Pregnant/Single AI, percent [3, 8]: 80%
Ovulations that occurred between 72 to 96 hr after prostaglandin injection ([3]; cetrorelix protocol): 90%
Pregnant/Total, percent (pregnancy rate) ([3]; random day of cycle, 3 mg cetrorelix i/m or 1 mg estradiol benzoate i/m, CIDR 8 days): 79%
Pregnant/Total ([3]; random day of cycle, 3 mg cetrorelix i/m or 1 mg estradiol benzoate i/m, CIDR 8 days, PGF, GnRH at AI): 15/19
